Broadly, the IC50 is the point on the concentration scale where inhibition reaches its midpoint. A low value points to greater potency.

The source of these data is publication PMC3409241, “Probing Cocaine-Antibody Interactions in Buffer and Human Serum” (PLoS ONE, 2012).

Molecules are shown by their SMILES. Entries after “also recorded” stand apart in the source; their conditions may differ. Counter-ions that a name gives are not always drawn. Like-named read-outs stand apart in the source and are kept apart here.

The target of data set [1] is mAb08. Kind of data set: SPR competitive inhibition of mAb08 binding to immobilized BSA-SNC. Also noted: species or system mouse. As to conditions: 50 nM mAb08 mixed with increasing drug concentrations.
The subject of data set [2] is RR6 enriched polyclonal antibodies. Put plainly: SPR competitive inhibition of RR6 enriched polyclonal antibody binding to immobilized BSA-SNC. Further details: species or system mouse. On the procedure: (§1) Data was collected using a medium collection rate at 25°C. The instrument was primed a few times using the running buffer before injecting the concentration series. For every binding cycle, the antibody samples were injected for 1.5 minutes at 50 µl/min flow rate and dissociation was monitored for 5 minutes. The bound antibody was releasedwith two 15 µl injections of pH 1.5 glycine buffer. The kinetic constants of binding were obtained using a 1∶1 Langmuir binding model. The raw data sets were analyzed using BIAevaluation (version 3.2) provided by BIAcore Inc. (Uppsala, Sweden). After the subtraction of background responses from the control flow cells, the association and dissociation phases were globally fitted for all the sensorgrams simultaneously, omitting any noisy data at the beginning and end of the analyte injection.

Another data set deals with f-mAb08. Kind of data set: MST of fluorescently labeled f-mAb08 binding to drugs. As to conditions: 25°C. Further details: species or system mouse. On the procedure:
The fluorescent labeling was performed with a reactive RED dye (NT-647) following the manufacturer’s protocol (Nanotemper, Germany). […] Free dye was removed by purification on a Sephadex G-25 column provided with the kit. MST assays were carried out as described in Jerabek-Willesmsen et al.. Serial dilutions of unlabeled drug or antibody samples were mixed with 20 nM of NT-647-labeled proteins in PBS buffer (25 mM phosphate pH 7.4, 150 mM NaCl, 0.05% Tween-20) and incubated for 20 minutes. About 10 µl of sample was loaded into standard monolith NT capillaries provided by the manufacturer and assays were performed in a Nanotemper Monolith NT.015T. The Red fluorescence was exited using a light-emitting diode, and its emission was recorded at a focused location of capillary. Using another infrared laser diode a microscopic temperature gradient was created at the same location and the fluorescence depletion was measured. By plotting the concentrations of unlabeled binding partner with the changes in fluorescent thermophoresis signal, K D values were determined using the Nanotemper analysis software. The overlay diagram was made by normalizing the data to fraction bound.

For data set [3] the following is noted: cited from earlier work.
In data set [4] the target is mAb08. Put plainly: ITC titration of drug into mAb08. The format is binding, mouse. As to conditions: 25°C. The protocol:
(§2) ITC experiments were performed using an ITC-200 micro calorimeter from MicroCal (Northampton, MA, USA). Samples were dialyzed against PBS buffer and degassed prior to loading into the ITC cell. The drug samples were prepared in the same buffer to avoid buffer mismatch. Titrations were performed at 25°C by injecting consecutive aliquots (2 µl) of 45 µM drug into the ITC cell (volume of 200 µl) containing 3 µM antibody at 500 rpm stirring rate. Intervals between injections were set to be 150 sec in order to allow the heat from each injection to return to the baseline. Heats of dilution control experiments were performed by titrating ligand into buffer. The heats associated with the control titration were subtraced from the raw binding data prior to fitting. The data were fitted assuming that the antibody binding sites are identical using a single set binding model included in the Origin 7.0 software provided by the manufacturer. ITC directly measures the change in heat associated with two components going from the free to the bound state. Thus the observed molar change in enthalpy (ΔHobs) can be determined.
The binding isotherms, which is the incremental heat release as a function of complex formation is shown in the lower panel of Fig. 3. The solid line corresponds to the fit to a binding model to yield the equilibrium binding constant, K D, and the binding parameters, n and ΔH obs. The results of data analysis are shown in Table 1 along with the derived parameters, ΔGcal and ΔScal.
(§3) The thermodynamic parameters associated with the binding of cocaine to human serum and human serum albumin were investigated using ITC. We titrated 45 µM of cocaine to 20% of control human serum (no anti-cocaine antibodies) dialyzed against PBS (Figure 4A).
(In general: In ITC the heat of successive injections is recorded.)

The next data set addresses 20% human serum. Put plainly: ITC titration of cocaine into 20% control human serum. The format is binding. On the procedure:
as §2, §3

Data set [5] has as its target enriched polyclonal antibodies purified from mouse or patient serum. Kind of data set: SPR competitive inhibition of enriched polyclonal antibody binding to immobilized BSA-SNC. The protocol: as §1
The target of the next data set is human serum albumin (Homo sapiens, UniProt P02768). Put plainly: ITC titration of cocaine into human serum albumin. The format is binding. As to conditions: 5 µM HSA against 45 µM cocaine in PBS. On the procedure: as §2, §3
For the next data set, the system named is Clone 402. Kind of data set: ITC titration of cocaine into Clone 402 antibody. The format is binding. The protocol: as §2
For the next data set, the system named is nonspecific human IgG. Put plainly: ITC of cocaine in presence of nonspecific human IgG. It is filed as binding. As to conditions: 7 µM non-specific human IgG with mAb08. The protocol:
as §2, §3

The subject of another data set is cAMP kinase. Also noted: method as in PMID 20981028. As to conditions: in presence of 30% human serum; cited from earlier work.
Setting [6] is: 20 nM f-mAb08, 20% control human serum, read-out: K D ^2 (nM) (Serum%).
The mark [7] stands for this setting: 20 nM f-mAb08, PBS (phosphate buffer), read-out: K D ^1 (nM) Enriched IgG.

Chain of human serum albumin (P02768 25-609): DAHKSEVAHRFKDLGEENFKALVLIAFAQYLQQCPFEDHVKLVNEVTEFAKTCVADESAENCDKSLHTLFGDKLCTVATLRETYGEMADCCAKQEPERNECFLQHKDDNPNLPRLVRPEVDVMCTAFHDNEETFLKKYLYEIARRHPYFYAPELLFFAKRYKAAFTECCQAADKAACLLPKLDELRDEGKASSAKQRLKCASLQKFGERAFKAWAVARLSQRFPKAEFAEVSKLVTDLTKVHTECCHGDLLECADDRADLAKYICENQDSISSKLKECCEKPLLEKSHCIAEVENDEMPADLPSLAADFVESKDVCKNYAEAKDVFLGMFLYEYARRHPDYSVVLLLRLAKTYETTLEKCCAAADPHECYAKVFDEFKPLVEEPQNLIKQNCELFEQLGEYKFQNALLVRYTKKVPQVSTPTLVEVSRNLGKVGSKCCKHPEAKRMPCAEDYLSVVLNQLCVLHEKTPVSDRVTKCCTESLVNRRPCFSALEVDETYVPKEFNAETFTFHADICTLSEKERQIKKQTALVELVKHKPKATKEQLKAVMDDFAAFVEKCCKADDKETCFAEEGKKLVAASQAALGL

On mAb08 [1], `CN1[C@H]2CC[C@@H]1[C@@H](C(=O)O)[C@@H](OC(=O)c1ccccc1)C2` [Benzoylecgonine] displayed a 50% inhibitory concentration (IC50) of 123 nM. This compound came in with an IC50 at mAb08 [1] (listed as BE) of about 123 nM. Also, the “inhibition of RR6 enriched fraction binding to BSA-SNC” value in data set [2] is listed as “did not show any significant inhibition”. Further, the Kd at f-mAb08 (setting [6]) was 98 nM. In addition, the Kd on f-mAb08 (setting [7]) worked out at 23.7 nM. Also, the elimination half-life in data set [3] was 6 to 8 h. At mAb08 [4] (PBS pH 7.4, sample mAb08), this compound gave a Kd of 18.6 ± 48.7 nM, a ΔGcal of -10.5 kcal/mol, a ΔHobs of -21.66 ± 0.61 kcal/mol and a ΔScal of −37.3 cal.mol^−1K^−1.
Regarding `CCOC(=O)[C@@H]1C2CCC(C[C@@H]1OC(=O)c1ccccc1)N2C` (stereo partly drawn) [Cocaethylene], on f-mAb08 (setting [6]), the Kd is 169 nM. The Kd on f-mAb08 (setting [7]) worked out at 47 nM. At mAb08 [4] (PBS pH 7.4, sample mAb08), this compound displayed a Kd of 34.4 nM, a ΔGcal of -10.2 kcal/mol, a ΔHobs of -21.16 ± 0.48 kcal/mol and a ΔScal of −36.8 cal.mol^−1K^−1.
For `COC(=O)[C@H]1[C@@H](OC(=O)c2ccccc2)C[C@@H]2CC[C@H]1N2C` [Cocaine, Cocaine hydrochloride], the Kd on 20% human serum (45 µM cocaine to 20% control human serum) was about 2000 nM; at 20% human serum (25°C, sample 20% Serum), 2000 nM; on f-mAb08 (setting [6]), 105 nM; on f-mAb08 (20 nM f-mAb08, 50% control human serum, listed as cocaine, read-out: K D ^2 (nM) (Serum%)) it was about 100 nM; at f-mAb08 (20 nM f-mAb08, 50% control human serum, read-out: K D ^2 (nM) (Serum%)) it was 128 nM; at f-mAb08 (setting [7]) it was 7.8 nM. Further, the Kd on Clone 402 (ITC, 25°C, sample Clone 402, read-out: K D) is 10000 nM; at Clone 402 (clone 402 (Arista Biologicals), read-out: affinity to cocaine), about 10000 nM; on mAb08 [4] (PBS pH 7.4, sample mAb08) it was 2.5 ± 6.8 nM; on mAb08 [4] (sample mAb08+7 µM hIgG) it was 4 ± 10.5 nM; at mAb08 [4] (sample mAb08+20% Serum) it was 113 nM; at mAb08 [4] (sample mAb08+20% Serum, listed as cocaine) it was about 113 nM. For the same compound, the ΔGcal with 20% human serum (25°C, sample 20% Serum) was -7.8 kcal/mol; in the data set with Clone 402 (ITC, 25°C, sample Clone 402) it was -6.8 kcal/mol; in the data set on mAb08 [4] (PBS pH 7.4, sample mAb08), -11.7 kcal/mol; in the data set on mAb08 [4] (sample mAb08+7 µM hIgG) it was -11.5 kcal/mol; with mAb08 [4] (sample mAb08+20% Serum), -9.5 kcal/mol. The ΔHobs in the data set on 20% human serum (25°C, sample 20% Serum) is -21.82 ± 3.16 kcal/mol; in the data set on Clone 402 (ITC, 25°C, sample Clone 402) it was -26.4 ± 1.93 kcal/mol; in the data set on mAb08 [4] (PBS pH 7.4, sample mAb08), -28.08 ± 0.37 kcal/mol; with mAb08 [4] (sample mAb08+7 µM hIgG), -28.58 ± 0.35 kcal/mol; with mAb08 [4] (sample mAb08+7 µM hIgG, listed as cocaine) it was -28 kcal/mol; in the data set on mAb08 [4] (sample mAb08+20% Serum) it was -33.19 ± 0.61 kcal/mol. The ΔScal in the data set on 20% human serum (25°C, sample 20% Serum) is −47.1 cal.mol^−1K^−1; with Clone 402 (ITC, 25°C, sample Clone 402), −65.6 cal.mol^−1K^−1; in the data set on mAb08 [4] (PBS pH 7.4, sample mAb08), −54.8 cal.mol^−1K^−1; in the data set with mAb08 [4] (sample mAb08+7 µM hIgG), −57.4 cal.mol^−1K^−1; in the data set on mAb08 [4] (sample mAb08+20% Serum) it was −79.5 cal.mol^−1K^−1. In addition, the IC50 was 100 to 500 nM in data set [5], about 100 nM on mAb08 [1] and about 104 nM at mAb08 [1] (listed as cocaine). Also, at human serum albumin, the “binding to human serum albumin” value is “very little interaction; also recorded: no detectable binding; also recorded: does not bind strongly”. In the data set with nonspecific human IgG, the “binding to nonspecific human IgG” value is “very little interaction; also recorded: absence of non-specific cocaine binding”. Further, in [3] (depends on route of administration), the elimination half-life is 1 to 1.5 h.
Regarding `O=c1c(O)c(-c2ccc(O)c(O)c2)oc2cc(O)cc(O)c12` [quercetin], the “fold decrease in affinity” value in the data set on cAMP kinase was 400 fold.
